A short description of one data set: in vitro. The settings on record: human.

The structures appear in SMILES notation.

As for `CC(C)CN(C[C@@H](O)[C@H](Cc1ccccc1)NC(=O)O[C@H]1CO[C@H]2OCC[C@H]21)S(=O)(=O)c1ccc(B(O)O)cc1` [Inhibitor 5, (4-(N-((2R,3S)-3-(((((3R,3aS,6aR)-hexahydrofuro[2,3-b]furan-3-yl)oxy)carbonyl)amino)-2-hydroxy-4-phenylbutyl)-N-isobutylsulfamoyl)phenyl)boronic acid], in the data set on MT-2 cells, the “selectivity index (CC50/IC50)” value is given as > 2,040. Further, in “in vitro”, the CC50 was > 100 µM.
For `CC(C)CN(C[C@@H](O)[C@H](Cc1ccccc1)NC(=O)O[C@H]1C2CO[C@H]3OC[C@@H]1C3C2)S(=O)(=O)c1ccc(B(O)O)cc1` (stereo partly drawn) [Inhibitor 6, (4-(N-((2R,3S)-3-(((((3S,7aS,8S)-Hexahydro-4H-3,5-methanofuro[2,3-b]pyran-8-yl)oxy)carbonyl)amino)-2-hydroxy-4-phenylbutyl)-N-isobutylsulfamoyl)phenyl)boronic acid], the “selectivity index (CC50/IC50)” value in the data set on MT-2 cells is listed as > 2,650. In addition, the CC50 in the data set “in vitro” is > 100 µM.

The values above are taken from PMC6842059 (ChemMedChem, 2019).
